Test results from patent publication US20020193564A1, “Oligomeric chaperone proteins” (priority 1999, published 2002).

What was measured:
[1] = tested on: COS-7, PC12, and SH-SY5Y cells; conditions: treatment with proteasome inhibitor; cited from earlier work
[2] = tested on: mutant Huntingdon exon 1-expressing PC12 and SH-SY5Y cells; conditions: overexpression; cited from earlier work
COS-7 cells = conditions: overexpression; cited from earlier work
GroES = GroES (Escherichia coli, UniProt P0A6F9); conditions: ELISA, FIG. 5a
Protocol: GroES Binding and Competition Assays by ELISA (Enzyme-Linked Immunosorbant Assay).
Proteins were coated onto plastic microtitre plates (Maxisorb, Nunc) overnight at 4° C. at a concentration of 10 μg/mL in carbonate buffer (50 mM NaHCO3, pH 9.6). Plates were blocked for 1 hour at 25° C. with 2% Marvel in PBS (phosphate buffered saline: 25 mM NaH2PO4, 125 mM NaCl, pH 7.0). GroES, at 10 μg/mL in 100 μL of 10 mM Tris-HCl, 200 mM KCl, pH 7.4, were bound at 25° C. for 1 hour. Bound GroES were detected with rabbit anti-GroES antibodies (Sigma) followed by anti-rabbit immunoglobulins horseradish peroxidase conjugated antibodies (Sigma).

[3] = molecular target: T1, heat- and dithiothreitol-denatured mtMDH (Sus scrofa, UniProt P00346); experiment: In vitro refolding of denatured mtMDH; type: biochemical, pig; conditions: FIG. 7b
T1 construct: Boehringer-Mannheim); purchased Boehringer-Mannheim; host or cells: pig heart
T1 sequence (P00346 25-338): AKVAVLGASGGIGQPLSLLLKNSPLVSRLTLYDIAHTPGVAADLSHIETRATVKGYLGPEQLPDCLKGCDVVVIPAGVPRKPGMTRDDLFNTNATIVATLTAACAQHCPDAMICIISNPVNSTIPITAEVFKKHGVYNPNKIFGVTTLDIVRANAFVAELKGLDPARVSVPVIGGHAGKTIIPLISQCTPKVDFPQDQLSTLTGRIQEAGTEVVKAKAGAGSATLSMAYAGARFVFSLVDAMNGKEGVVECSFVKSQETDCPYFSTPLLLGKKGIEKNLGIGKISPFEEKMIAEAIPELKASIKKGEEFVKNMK
Protocol: In vitro Refolding Experiments.
Refolding assays of pig heart mitochondrial malate dehydrogenase (mtMDH; Boehringer-Mannheim) and aggregation protection were carried out essentially as described (Peres Ben-Zvi, A. P., Chatellier, J., Fersht, A. R. & Goloubinoff, P. (1998) Proc. Natl. Acad. Sci. U.S.A. 95, 15275-15280). The concentrations of MC7 used were between 8-16 μM (reporter to protomer).

bacteriophage λ = experiment: Growth of bacteriophage λ in transformed groEL strains; type: cell-based, bacteriophage λ (b2cI) in E. coli; conditions: SV1 (groE^+)
Excerpt: The E. Coli strains used in this study were: C41(DE3), a mutant of BL21(DE3) capable of expressing toxic genes (Miroux, B. & Walker, J. E. (1996) J. Mol. Biol. 260, 289-298); SV2 (B178groEL44), SV3 (B178groEL59) and SV6 (B178groEL673): isogenic strains carrying temperature-sensitive alleles of groEL; SV1(=B178) (Georgopoulos, C., Hendrix, R. W., Casjens, S. R. & Kaiser, A. D. (1973) J. Mol. Biol. 76, 45-60), A190 (ΔgroEL::kan^R) [pBAD-EL] (Ivic, A., Olden, D., Wallington, E. J. & Lund, P. A. (1997) Gene 194, 1-8), and TG1 (Gibson, T. J. (1984) Ph.D. thesis, University of Cambridge, U.K). Bacteriophage λb2cI (Zeilstra-Ryalls, J., Fayet, O., Baird, L. & Georgopoulos, C. (1993) J. Bacteriol. 175, 1134-1143) was used according to standard methods (Arber, W., Enquist, L., Hohn, B., Murray, N. E. & Murray, K. (1983) in Lambda II., ed. R. W. Hendrix, J. W. r., F. W. Stahl and R. A. Weisberg (Cold Spring Harbor Laboratory, Cold Spring Harbor, N.Y.), pp. 433-466); plaque formation was assayed at 30° C. T4D0, a derivative of bacteriophage T4 (Zeilstra-Ryalls, J., Fayet, O., Baird, L. & Georgopoulos, C. (1993) J. Bacteriol. 175, 1134-1143), was used according to standard methods (Karam, J. D. (1994) Molecular biology of bacteriophage T4. (American Society for Microbiology, Washington, D.C.)); plaque formation was assayed at 37° C.

GroES, sequence (P0A6F9 whole entry): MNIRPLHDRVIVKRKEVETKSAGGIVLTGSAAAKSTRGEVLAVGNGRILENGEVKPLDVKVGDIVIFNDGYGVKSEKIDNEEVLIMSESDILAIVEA

Molecule: CC(=O)N[C@@H](CSC(=O)[C@]1([C@@H](O)C(C)C)NC(=O)[C@H](C)[C@@H]1O)C(=O)O [lactacystin]
- proportion of cells with inclusions of mutant huntingtin exon 1 [1]: increased the proportion of cells with inclusions

Molecule: HDJ-2/HSDJ: a human HSP40 homologue
- proportion of cells with inclusions / inclusion formation [2]: did not modify inclusion formation
- inclusion formation in COS-7 cells (COS-7 cells): increased inclusion formation

B1: GroEL(191-376): monomeric minichaperone, apical domain of GroEL, residues 191 to 376 (protein, UniProt P0A6F5 191-376, looked up, fragment)
chain: EGMQFDRGYLSPYFINKPETGAVELESPFILLADKKISNIREMLPVLEAVAKAGKPLLIIAEDVEGEALATLVVNTMRGIVKVAAVKAPGFGDRRKAMLQDIATLTGGTVISEEIGMELEKATLEDLGQAKRVVINKDTTTIIDGVGEEAAIQGRVAQIRQQIEEATSDYDREKLQERVAKLAGGV
modifications: apical domain
- Binding to GroES (GroES): did not detectably bind
- enhancing the refolding rate of mtMDH [3]: ineffective in enhancing the refolding rate
- Effect of over-expression on λ growth / plaque counts (bacteriophage λ): no effect on plaque counts
